Test results: patent US20090253687A1, “Fused Heterocyclic Compounds and Their Use as Mineralocorticoid Receptor Ligands” (priority 2005, published 2009)

Molecular target: T1, Human Mineralocorticoid Receptor (hMR) (Homo sapiens, UniProt P08235)
T1 construct: Full-length cDNA was constructed from two fragments of hMR cDNA amplified separately; expressed in transfected cells; host or cells: FreeStyle 293 cells transiently transfected with pMCMVneo-hMR; supernatant of the freeze-thaw lysate after ultracentrifugation
T1 sequence (P08235 1-984): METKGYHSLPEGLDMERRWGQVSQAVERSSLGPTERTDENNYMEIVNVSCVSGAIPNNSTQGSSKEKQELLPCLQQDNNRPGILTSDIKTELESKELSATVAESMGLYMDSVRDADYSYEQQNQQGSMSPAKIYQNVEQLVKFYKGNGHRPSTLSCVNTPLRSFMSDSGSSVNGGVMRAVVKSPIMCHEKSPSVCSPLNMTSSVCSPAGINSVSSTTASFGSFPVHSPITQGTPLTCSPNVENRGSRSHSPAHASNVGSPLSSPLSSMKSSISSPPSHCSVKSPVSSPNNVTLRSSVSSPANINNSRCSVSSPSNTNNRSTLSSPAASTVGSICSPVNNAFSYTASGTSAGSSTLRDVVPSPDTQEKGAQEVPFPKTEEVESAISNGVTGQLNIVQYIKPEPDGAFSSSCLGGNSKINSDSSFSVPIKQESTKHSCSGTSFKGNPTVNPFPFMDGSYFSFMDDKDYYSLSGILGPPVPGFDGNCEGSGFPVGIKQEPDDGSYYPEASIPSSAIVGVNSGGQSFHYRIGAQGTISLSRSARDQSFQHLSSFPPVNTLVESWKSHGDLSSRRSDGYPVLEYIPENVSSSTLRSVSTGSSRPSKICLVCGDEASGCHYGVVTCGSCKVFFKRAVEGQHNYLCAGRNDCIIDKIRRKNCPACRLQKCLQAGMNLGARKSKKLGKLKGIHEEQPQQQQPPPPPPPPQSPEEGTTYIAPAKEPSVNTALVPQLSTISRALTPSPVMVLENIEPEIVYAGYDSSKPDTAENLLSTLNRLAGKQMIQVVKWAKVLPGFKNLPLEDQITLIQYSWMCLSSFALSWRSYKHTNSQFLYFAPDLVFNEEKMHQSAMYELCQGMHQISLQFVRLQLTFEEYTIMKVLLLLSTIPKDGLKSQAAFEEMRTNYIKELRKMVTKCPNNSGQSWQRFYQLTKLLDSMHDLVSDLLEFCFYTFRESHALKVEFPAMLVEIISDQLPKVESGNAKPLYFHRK
Experiment: Inhibition of binding of [3H]-aldosterone to hMR (lysate of FreeStyle 293 cells expressing hMR)
Conditions: compound at 10^−5 M; 10 nM [3H]-aldosterone; hMR lysate 1.0 mg/ml; 16 hr at 4° C.; read-out: Inhibition rate (at 10^−5 M)
Method: The following procedures described in this Example were carried out according to the methods described in Molecular Cloning—Cold Spring Harbor Laboratory (1989) or protocols specified by manufacturers. (1) Cloning of Human Mineralocorticoid Receptor (hMR) cDNA hMR cDNA was amplified by polymerase chain reaction (PCR) from human kidney cDNA library. Full-length cDNA was constructed from two fragments of hMR cDNA amplified separately. The primers were designed referring to the nucleotide sequence of hMR cDNA reported by Arriza et. al (Science 1987; 237: 268-275). The PCR reactions were carried out using Pyrobest® DNA polymerase (Takara). The PCR products were electrophoresed in agarose gel, and 1.7 kb (region (i)) and 1.5 kb (region (ii)) DNA fragments were recovered. Each DNA fragment was inserted into pCR®4Blunt-TOPO® vector (Invitrogen). The resulting plasmids thus obtained were designated as pB-hMR (i) and pB-hMR (ii). To obtain the full-length hMR cDNA, pB-hMR (i) was digested with XhoI and PvuI, and pB-hMR (ii) was digested with PvuI and KpnI, respectively, and the two cDNA fragments were ligated into pBlueScript®IISK+ vector (Stratagene). The resulting plasmid thus obtained was designated as pB-hMR. (2) Construction of hMR Expression Plasmid pMCMVneo (described in WO03/099793) was digested with XhoI and KpnI, and 5.6 kb fragment was ligated with 2.9 kb hMR cDNA fragment obtained by digestion of pB-hMR (described in above (1)) with XhoI and KpnI. The plasmid thus obtained was designated as pMCMVneo-hMR. (3) Expression of hMR in FreeStyle 293 Cells and Preparation of Cell Lysate FreeStyle 293 cells were inoculated at 1×10^8 cells in 93 ml FreeStyle™ 293 Expression Medium (Invitrogen) in a 500 ml Erlenmeyer flask and cultured at 37° C. under 8% CO2 for 1 hr. The cells were treated with 6.7 ml of the transfection mixture containing 100 μg of pMCMVneo-hMR obtained in above (2) and 133 μl of FreeStyle™ 293 Transfection Reagent (Invitrogen). The transfected cells were cultivated for 48 hr at 37° C. in 8% CO2 atmosphere. The cultivated cells were centrifuged and washed with TEG buffer (10 mM Tris-HCl (pH 7.2), 50 mM EDTA, 10% glycerol), and resuspended in 10 ml TEGM buffer (10 mM Tris-HCl (pH 7.2), 1 mM EDTA, 10% glycerol, 1 mM β-mercaptoethanol, 10 mM sodium molybdate, 1 mM dithiothreitol, 2 tablets/100 ml of protease inhibitor cocktail tablets (Roche)). The cell suspension was frozen with liquid nitrogen and thawed on ice, and ultra-centrifuged at 225,000×g for 20 min at 4° C. The supernatant fraction including hMR (hMR lysate) was collected and stored at −80° C. (4) Measurement of Inhibition Activity Against Binding of hMR and Aldosterone [^3H]-Aldosterone (Amersham Biosciences) as ligand was added at 10 nM to the reaction mixture including test compound at various concentration and hMR lysate (1.0 mg/ml) obtained in above (3) and mixture was filled up to 50.5 μl with TEGM buffer. The reaction mixture was incubated for 16 hr at 4° C. and 35 μl of dextran/gelatin coated charcoal suspension (5% charcoal, 0.5% dextran T-70 (Amersham Biosciences), 0.1% gelatin (SIGMA), 10 mM Tris HCl (pH 7.2), 1 mM EDTA) was added thereto to separate bound and free radioactive aldosterone. The mixture containing charcoal was incubated for 10 min at 4° C. and centrifuged at 910×g for 10 min at 4° C. Radioactivity in 30 μl of the supernatant was measured by TopCount™ (Packard). For the determination of nonspecific binding, cold Aldosterone instead of drug was added to reaction mixture at 100 μM. Specific binding was determined by subtracting nonspecific binding from total binding.

Row | Compound | inhibition at 10 µM
1 | O=C1COc2ccc(C3=Nn4cnnc4SC3c3ccccc3)cc2N1 (centres unmarked) [Example 3, 6-(7-phenyl-7H-[1,2,4]triazolo[3,4-b][1,3,4]thiadiazin-6-yl)-2H-1,4-benzoxazin-3(4H)-one] | ≥ 70%
2 | O=C1COc2ccc(C3=Nn4ccnc4SC3c3ccccc3)cc2N1 (centres unmarked) [Example 5, 6-(2-Phenyl-2H-imidazo[2,1-b][1,3,4]thiadiazin-3-yl)-2H-1,4-benzoxazin-3(4H)-one] | ≥ 70%
3 | O=C1COc2ccc(C3=Nn4cc(C(F)(F)F)nc4SC3c3ccccc3)cc2N1 (centres unmarked) [Example 7, 6-[2-Phenyl-7-(trifluoromethyl)-2H-imidazo[2,1-b][1,3,4]thiadiazin-3-yl]-2H-1,4-benzoxazin-3(4H)-one] | ≥ 70%
4 | O=C1COc2ccc(C3=Nc4ccccc4SC3c3ccccc3)cc2N1 (centres unmarked) [Example 14, 6-(2-Phenyl-2H-1,4-benzothiazin-3-yl)-2H-1,4-benzoxazin-3(4H)-one] | ≥ 70%
5 | O=C1COc2ccc(C3=Nc4ccccc4OC3c3ccccc3)cc2N1 (centres unmarked) [Example 18, 2-Phenyl-2H,2′H-3,6′-bi-1,4-benzoxazin-3′(4′H)-one] | ≥ 70%
6 | O=C1COc2ccc(C3=Cc4ccccc4OC3c3ccccc3)cc2N1 (centres unmarked) [Example 19, 6-(2-Phenyl-2H-chromen-3-yl)-2H-1,4-benzoxazin-3(4H)-one] | ≥ 70%
7 | O=C1COc2ccc(C3=Cc4ccccc4SC3c3ccccc3)cc2N1 (centres unmarked) [Example 20, 6-(2-Phenyl-2H-thiochromen-3-yl)-2H-1,4-benzoxazin-3(4H)-one] | ≥ 70%
8 | NC1=NC=C(c2ccc3c(c2)NC(=O)CO3)C(c2ccccc2)S1 (centres unmarked) [Example 24, 6-(2-amino-6-phenyl-6H-1,3-thiazin-5-yl)-2H-1,4-benzoxazin-3(4H)-one] | ≥ 70%
9 | O=C1COc2ccc(C3=Cn4ccnc4SC3c3ccccc3)cc2N1 (centres unmarked) [Example 26, 6-(7-Phenyl-7H-imidazo[2,1-b][1,3]thiazin-6-yl)-2H-1,4-benzoxazin-3(4H)-one] | ≥ 70%
10 | CCCC1Sc2nncn2N=C1c1ccc2c(c1)NC(=O)CO2 (centres unmarked) [Example 31, 6-(7-Propyl-7H-[1,2,4]triazolo[3,4-b][1,3,4]thiadiazin-6-yl)-2H-1,4-benzoxazin-3(4H)-one] | ≥ 70%
11 | O=C1COc2ccc(C3=Nn4cnnc4SC3c3ccccc3Cl)cc2N1 (centres unmarked) [Example 34, 6-[7-(2-chlorophenyl)-7H-[1,2,4]triazolo[3,4-b][1,3,4]thiadiazin-6-yl]-2H-1,4-benzoxazin-3(4H)-one] | ≥ 70%

Results, then the compound that gave them:

Row | inhibition at 10 µM | Compound
12 | ≥ 70% | O=C1COc2ccc(C3=Nn4cnnc4SC3c3ccc(F)cc3)cc2N1 (centres unmarked) [Example 35, 6-[7-(4-Fluorophenyl)-7H-[1,2,4]triazolo[3,4-b][1,3,4]thiadiazin-6-yl]-2H-1,4-benzoxazin-3(4H)-one]
13 | ≥ 70% | O=C1COc2ccc(C3=Nc4ccccc4SC3c3ccccn3)cc2N1 (centres unmarked) [Example 43, 6-(2-Pyridin-2-yl-2H-1,4-benzothiazin-3-yl)-2H-1,4-benzoxazin-3(4H)-one]
14 | ≥ 70% | O=C1COc2ccc(C3=Cc4ccccc4SC3c3ccccn3)cc2N1 (centres unmarked) [Example 44, 6-(2-Pyridin-2-yl-2H-thiochromen-3-yl)-2H-1,4-benzoxazin-3(4H)-one]
15 | ≥ 70% | O=C1COc2ccc(C3=NN(c4ccc(F)cc4)CC3c3ccccc3)cc2N1 (centres unmarked) [Example 49, 6-(1-(4-Fluorophenyl)-4-phenyl-4,5-dihydro-1H-pyrazol-3-yl)-2H-benzo[b][1,4]oxazin-3(4H)-one]
16 | ≥ 70% | O=C1COc2ccc(C3=NN(CC(F)(F)F)CC3c3ccccc3)cc2N1 (centres unmarked) [Example 53, 6-(4-Phenyl-1-(2,2,2-trifluoroethyl)-4,5-dihydro-1H-pyrazol-3-yl)-2H-benzo[b][1,4]oxazin-3(4H)-one]
17 | ≥ 70% | O=C1COc2ccc(C3=NN(C(=O)C(F)(F)F)CC3c3ccccc3)cc2N1 (centres unmarked) [Example 57, 6-(4-Phenyl-1-(2,2,2-trifluoroacetyl)-4,5-dihydro-1H-pyrazol-3-yl)-2H-benzo[b][1,4]oxazin-3(4H)-one]
